Legend:
S. rolfsii = assay: Fungicidal activity assay on PDA in sealed Petri dish (growth inhibition and mortality); assay type: cell-based, Sclerotinia rolfsii; settings: Agroathelia rolfsii; S. rolfsii; NA + number = still viable in the highest concentration tested (given as >); read-out: M - Mortality, minimal concentration that killed the fungus
Protocol: (§1) Each compound was placed on a disconnected cover from an Eppendorf tube that was located in the middle of the Petri dish and a hyphae-containing plug of each test fungus was added to the culture plate. In exemplary procedures, the tested compounds trans-2-heptenal, trans-2-octenal were tested in comparison with octanal, trans-2-octen-1-ol, methyl trans-2-octenoate, trans-3-octen-2-one and 3-pentenenitrile. In addition, cyclic ketones as 2-cyclopenten-1-one, 2-cyclohexen-1-one and α-tetralone were also examined. Then, the culture plate was sealed with parafilm and incubated at room-temperature for 2 days, after which the growth of the test fungi in those dishes was compared with those in the test compound-free control dishes. At the end of the assay, the viability of each test fungus was evaluated by transferring inoculum plugs to fresh PDA plates and observing the growth that developed within the next 2 days. The test fungi used in this study included but were not limited to Alternaria alternata, Botrytis cinerea, Sclerotinia rolfsii, Penicillium digitatum, Fusarium oxysporum f. sp. radicis-cucumerinum and Rhizoctonia solani.

R. solani = assay: microbe, parasite or virus in culture; assay type: cell-based; settings: Rhizoctonia solani, read-out: M - Mortality, minimal concentration that killed the fungus
Protocol: as §1

[1] = system: lettuce seedling strain Raviv; settings: in vivo, 3 days
Protocol: (§2) An experiment in a larger scale was performed in loam soil in which the seedling were planted directly in the treated plot. The soil was treated with 0, 25, 50, 100, 200, 400, 800, and 1,600 ppm of emulsion of trans-2-octenal. The compound was applied using the irrigation system. A day later, tomato seedling strains Ikram and Abigail and lettuce seedling strain Raviv (10 seedlings each) were planted into the treated soil of each concentration. Eleven days later, the number of viable seedlings was counted.

tomato strain Ikram = settings: in vivo, 3 days
Protocol: as §2

[2] = system: tomato seedlings strain Ikram; assay: Phytotoxic effect on tomato seedlings in pots of pretreated loam soil; assay type: in vivo; settings: 9 days
Protocol: The phytotoxic effect of 2-cyclohexen-1-one in pots was examined on tomato seedlings strain Ikram. Pots (9-10 repetitions) were filled with 500 g of loam soil pretreated with 2-cyclohexen-1-one at final concentration of 0, 50, and 60 ppm. Then, tomato seedling was planted in each pot and allowed to grow for 9 days. The phytotoxic effect was evaluated by counting the number of live seedling and measuring their heights.

peanut seeds = assay: Phytotoxic effect on peanut seeds in pots of loam soil; assay type: in vivo; settings: 16 days; for Number of germinated seeds: 9 seeds sown
Description: The phytotoxic effect of 2-cyclohexen-1-one was also examined on peanut seeds. The concentrations tested were: 0, 10, 20, and 40 ppm, 3 pots for each concentration. After mixing the loam soil with 2-cyclohexne-1-one, three peanut seeds were sown in each pot and let to grow for 16 days.

tomato strain Kilates = settings: in vivo, 3 days
Protocol: The soil was treated with 0, 400 and 800 ppm of emulsion of 2-cyclohexene-1-one. The compound was applied using the irrigation system. A day later, tomato seedling strains Ikram, and Kilates and lettuce seedling strain Raviv (10 seedlings each) were planted into the treated soil of each concentration. Three (3) days later, the number of seedlings was counted.

[3] = system: F. oxysporum f. sp. radicis-cucumerium; assay: Fungicidal activity assay on PDA in sealed Petri dish (growth inhibition and mortality); assay type: cell-based, Fusarium oxysporum f. sp. radicis-cucumerinum; settings: Fusarium oxysporum, NA + number = still viable in the highest concentration tested (given as >), read-out: M - Mortality, minimal concentration that killed the fungus
Protocol: as §1

test fungi = assay: Fungicidal activity assay on PDA, summaries over the test fungi; assay type: cell-based; settings: comparison within the series
Protocol: as §1, with “In exemplary procedures, the fungicidial activity of the compounds listed in Table 2 were examined by activity assays as follow: Petri dishes, 90 mm in diameter, with air volume of 80 mL, contained 10-12 mL of growth medium comprising potato dextrose agar (PDA) (Acumedia, Lansing, Michigan, USA) amended with tetracycline at 12 μg/mL. Each” for “Each”

Meloidogyne javanica J2s = assay: Greenhouse nematocidal experiment with susceptible tomato plants in inoculated loam; assay type: in vivo; settings: tomato harvested after 8 weeks
Protocol: The activity of trans-2-octenal against nematodes was examined in a greenhouse experiment using stage 2 juveniles of the rot-knot nematode Meloidogyne javanica. […] After 2 days, the inoculated soil was treated with 30 ppm of trans-2-octenal and incubated for additional 5 days. Then, susceptible tomato plants were planted, and allowed to grow in a growing chamber for 8 weeks. At the end of the experiment, the plants, along with their root systems, were harvested from their pots and evaluated for incidence of root galling. In addition, M. javanica eggs were extracted from each root and counted, and the number of eggs per gram root was calculated. As shown in FIGS. 14A-14D, trans-2-octenal reduced the galling index and the number of eggs per gram root. […] The activity of 2-cyclohexen-1-one against nematodes was examined in a greenhouse experiment using stage 2 juveniles of the rot-knot nematode Meloidogyne javanica. The experiment was performed as described for trans-2-octenal. […] After 2 days, the inoculated soil was treated with 15 or 31 ppm of 2-cyclohexen-1-one and incubated for additional 5 days. Then, susceptible tomato plants were planted, and allowed to grow in a growing chamber for 8 weeks. At the end of the experiment, the plants, along with their root systems, were harvested from their pots and evaluated for incidence of root galling. In addition, M. javanica eggs were extracted from each root and counted, and the number of eggs per gram root was calculated.

SMILES: O=C1C=CCCC1 [2-cyclohexen-1-one]
- MFC (S. rolfsii): > 25 µg/mL
- MFC (R. solani): > 25 µg/mL
- concentration at which phytotoxic effect was displayed [1]: 800 ppm
- concentration at which phytotoxic effect occurred (tomato strain Ikram): 400 ppm
- % Viability ([2]; 50 ppm): 100%
- Seedling height (Mean ± SD) ([2]; 50 ppm): 21 ± 3 cm
- % Viability ([2]; 60 ppm): 67%
- Seedling height (Mean ± SD) ([2]; 60 ppm): 16 ± 2 cm
- concentration at which phytotoxic effect was obtained ([2]; of 0, 50 and 60 ppm tested): 60 ppm
- % Viability (peanut seeds; 10 ppm): 89%
- Number of germinated seeds (peanut seeds; 10 ppm): 8
- % Viability (peanut seeds; 20 ppm): 100%
- Number of germinated seeds (peanut seeds; 20 ppm): 9
- % Viability (peanut seeds; 40 ppm): 89%
- Number of germinated seeds (peanut seeds; 40 ppm): 8
- concentration at which phytotoxic effect occurred (tomato strain Kilates): 400 ppm
- MFC [3]: > 25 µg/mL
- fungicidal activity in words (test fungi): fungicidal activity, to some extent
- concentration sufficient to reduce the galling index and the number of eggs per gram root (Meloidogyne javanica J2s): 15 ppm
